From patent US20080146617A1, “Methods of treating inflammatory diseases” (Roche Palo Alto LLC, priority 2006, published 2008)

Columns and labels:
Assay in all cases: KinomeScan kinase profiling
Format in all cases: binding
AURKA = target: T1, AURKA (Homo sapiens, UniProt O14965)
T1 construct: purchased Ambit Biosciences (San Diego, Calif.)

LCK = target: T2, LCK (Homo sapiens, UniProt P06239)
T2 construct: purchased Ambit Biosciences (San Diego, Calif.)

PCTK1 = target: T3, PCTK1 (Homo sapiens, UniProt Q00536)
T3 construct: purchased Ambit Biosciences (San Diego, Calif.)

ABL1 = target: T4, ABL1 (Homo sapiens, UniProt P00519)
T4 construct: purchased Ambit Biosciences (San Diego, Calif.)
Text: (§1) The selectivity of a given CK1δ, CK1ε or CK1δ-CK1ε inhibitor compound can be determined by testing the compound against a panel of known kinases. An example of such a kinase profiling technology is the “KinomeScan” from Ambit Biosciences in which compounds can be screened for their modulatory activities against more than 200 known kinases.

ABL2 = target: T5, ABL2 (Homo sapiens, UniProt P42684)
T5 construct: purchased Ambit Biosciences (San Diego, Calif.)
Text: as §1

ACK1 = target: T6, ACK1 (Homo sapiens, UniProt Q07912)
T6 construct: purchased Ambit Biosciences (San Diego, Calif.)
Text: as §1

AURKC = target: T7, AURKC (Homo sapiens, UniProt Q9UQB9)
T7 construct: purchased Ambit Biosciences (San Diego, Calif.)
Text: as §1

BIKE = target: T8, BIKE (Homo sapiens, UniProt Q9NSY1)
T8 construct: purchased Ambit Biosciences (San Diego, Calif.)
Text: as §1

BLK = target: T9, BLK (Homo sapiens, UniProt P51451)
T9 construct: purchased Ambit Biosciences (San Diego, Calif.)
Text: as §1

BMX = target: T10, BMX (Homo sapiens, UniProt P51813)
T10 construct: purchased Ambit Biosciences (San Diego, Calif.)
Text: as §1

CAMK1 = target: T11, CAMK1 (Homo sapiens, UniProt Q14012)
T11 construct: purchased Ambit Biosciences (San Diego, Calif.)
Text: as §1

CAMK1G = target: T12, CAMK1G (Homo sapiens, UniProt Q96NX5)
T12 construct: purchased Ambit Biosciences (San Diego, Calif.)
Text: as §1

CAMK2G = target: T13, CAMK2G (Homo sapiens, UniProt Q13555)
T13 construct: purchased Ambit Biosciences (San Diego, Calif.)
Text: as §1

CAMKK1 = target: T14, CAMKK1 (Homo sapiens, UniProt Q8N5S9)
T14 construct: purchased Ambit Biosciences (San Diego, Calif.)
Text: as §1

CLK4 = target: T15, CLK4 (Homo sapiens, UniProt Q9HAZ1)
T15 construct: purchased Ambit Biosciences (San Diego, Calif.)
Text: as §1

DAPK3 = target: T16, DAPK3 (Homo sapiens, UniProt O43293)
T16 construct: purchased Ambit Biosciences (San Diego, Calif.)
Text: as §1

EGFR = target: T17, EGFR (Homo sapiens, UniProt P00533)
T17 construct: purchased Ambit Biosciences (San Diego, Calif.)
Text: as §1

EPHA4 = target: T18, EPHA4 (Homo sapiens, UniProt P54764)
T18 construct: purchased Ambit Biosciences (San Diego, Calif.)
Text: as §1

EPHA7 = target: T19, EPHA7 (Homo sapiens, UniProt Q15375)
T19 construct: purchased Ambit Biosciences (San Diego, Calif.)
Text: as §1

FRK = target: T20, FRK (Homo sapiens, UniProt P42685)
T20 construct: purchased Ambit Biosciences (San Diego, Calif.)
Text: as §1

INSR = target: T21, INSR (Homo sapiens, UniProt P06213)
T21 construct: purchased Ambit Biosciences (San Diego, Calif.)
Text: as §1

LTK = target: T22, LTK (Homo sapiens, UniProt P29376)
T22 construct: purchased Ambit Biosciences (San Diego, Calif.)
Text: as §1

MKNK2 = target: T23, MKNK2 (Homo sapiens, UniProt Q9HBH9)
T23 construct: purchased Ambit Biosciences (San Diego, Calif.)
Text: as §1

NEK2 = target: T24, NEK2 (Homo sapiens, UniProt P51955)
T24 construct: purchased Ambit Biosciences (San Diego, Calif.)
Text: as §1

NEK6 = target: T25, NEK6 (Homo sapiens, UniProt Q9HC98)
T25 construct: purchased Ambit Biosciences (San Diego, Calif.)
Text: as §1

PAK1 = target: T26, PAK1 (Homo sapiens, UniProt Q13153)
T26 construct: purchased Ambit Biosciences (San Diego, Calif.)
Text: as §1

PAK3 = target: T27, PAK3 (Homo sapiens, UniProt O75914)
T27 construct: purchased Ambit Biosciences (San Diego, Calif.)
Text: as §1

PDGFRA = target: T28, PDGFRA (Homo sapiens, UniProt P16234)
T28 construct: purchased Ambit Biosciences (San Diego, Calif.)
Text: as §1

PIM2 = target: T29, PIM2 (Homo sapiens, UniProt Q9P1W9)
T29 construct: purchased Ambit Biosciences (San Diego, Calif.)
Text: as §1

PLK4 = target: T30, PLK4 (Homo sapiens, UniProt O00444)
T30 construct: purchased Ambit Biosciences (San Diego, Calif.)
Text: as §1

PTK2 = target: T31, PTK2 (Homo sapiens, UniProt Q05397)
T31 construct: purchased Ambit Biosciences
Text: as §1

RAF1 = target: T32, RAF1 (Homo sapiens, UniProt P04049)
T32 construct: purchased Ambit Biosciences
Text: as §1

RPS6KA5 = target: T33, RPS6KA5 (Homo sapiens, UniProt O75582)
T33 construct: purchased Ambit Biosciences
Text: as §1

STK10 = target: T34, STK10 (Homo sapiens, UniProt O94804)
T34 construct: purchased Ambit Biosciences
Text: as §1

STK16 = target: T35, STK16 (Homo sapiens, UniProt O75716)
T35 construct: purchased Ambit Biosciences
Text: as §1

STK17B = target: T36, STK17B (Homo sapiens, UniProt O94768)
T36 construct: purchased Ambit Biosciences
Text: as §1

SYK = target: T37, SYK (Homo sapiens, UniProt P43405)
T37 construct: purchased Ambit Biosciences
Text: as §1

TIE2 = target: T38, TIE2 (Homo sapiens, UniProt Q02763)
T38 construct: purchased Ambit Biosciences
Text: as §1

TNIK = target: T39, TNIK (Homo sapiens, UniProt Q9UKE5)
T39 construct: purchased Ambit Biosciences
Text: as §1

VEGFR2 = target: T40, VEGFR2 (Homo sapiens, UniProt P35968)
T40 construct: purchased Ambit Biosciences (San Diego, Calif.)
Text: as §1

Measured: inhibition at 10 µM

T7 sequence (Q9UQB9 whole entry): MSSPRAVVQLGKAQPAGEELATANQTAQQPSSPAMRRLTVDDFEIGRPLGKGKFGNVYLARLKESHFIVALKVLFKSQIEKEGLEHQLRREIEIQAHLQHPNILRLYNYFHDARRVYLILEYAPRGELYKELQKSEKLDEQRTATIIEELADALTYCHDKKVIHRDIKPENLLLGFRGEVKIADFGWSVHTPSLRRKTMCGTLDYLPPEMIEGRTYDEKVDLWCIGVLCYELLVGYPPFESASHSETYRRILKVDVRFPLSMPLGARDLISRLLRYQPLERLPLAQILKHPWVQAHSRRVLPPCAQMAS
T17 sequence (P00533 25-1210): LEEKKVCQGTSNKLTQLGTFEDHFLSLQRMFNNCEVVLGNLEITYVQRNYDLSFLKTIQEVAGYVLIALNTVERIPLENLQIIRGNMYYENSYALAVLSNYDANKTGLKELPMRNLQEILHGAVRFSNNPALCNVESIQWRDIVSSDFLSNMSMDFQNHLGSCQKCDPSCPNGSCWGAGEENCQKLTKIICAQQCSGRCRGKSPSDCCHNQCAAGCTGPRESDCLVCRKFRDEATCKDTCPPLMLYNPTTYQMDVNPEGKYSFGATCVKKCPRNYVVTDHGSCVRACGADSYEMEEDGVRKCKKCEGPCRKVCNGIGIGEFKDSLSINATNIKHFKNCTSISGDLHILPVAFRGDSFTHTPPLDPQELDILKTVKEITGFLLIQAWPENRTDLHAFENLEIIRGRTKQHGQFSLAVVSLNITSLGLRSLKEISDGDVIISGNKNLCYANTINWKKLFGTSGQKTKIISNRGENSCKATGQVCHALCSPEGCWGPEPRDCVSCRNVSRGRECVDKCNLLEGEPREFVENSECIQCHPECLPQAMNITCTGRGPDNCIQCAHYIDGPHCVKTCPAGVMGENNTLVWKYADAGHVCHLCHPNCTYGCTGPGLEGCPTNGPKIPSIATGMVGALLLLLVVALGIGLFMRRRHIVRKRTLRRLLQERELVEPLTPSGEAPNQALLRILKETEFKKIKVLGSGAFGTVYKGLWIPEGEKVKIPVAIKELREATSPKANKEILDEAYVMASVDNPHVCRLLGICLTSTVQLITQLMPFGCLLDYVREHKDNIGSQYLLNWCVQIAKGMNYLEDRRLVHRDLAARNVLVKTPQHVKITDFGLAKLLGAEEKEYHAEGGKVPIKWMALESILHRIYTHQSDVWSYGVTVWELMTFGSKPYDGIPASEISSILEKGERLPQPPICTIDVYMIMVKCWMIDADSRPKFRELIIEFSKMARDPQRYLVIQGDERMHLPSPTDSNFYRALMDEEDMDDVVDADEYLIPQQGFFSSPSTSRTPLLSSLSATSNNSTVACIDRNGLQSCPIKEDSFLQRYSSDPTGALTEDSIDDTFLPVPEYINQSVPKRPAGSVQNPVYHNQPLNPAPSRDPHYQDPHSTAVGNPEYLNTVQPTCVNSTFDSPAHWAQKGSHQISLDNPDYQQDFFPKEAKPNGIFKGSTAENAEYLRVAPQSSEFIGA
T11 sequence (Q14012 whole entry): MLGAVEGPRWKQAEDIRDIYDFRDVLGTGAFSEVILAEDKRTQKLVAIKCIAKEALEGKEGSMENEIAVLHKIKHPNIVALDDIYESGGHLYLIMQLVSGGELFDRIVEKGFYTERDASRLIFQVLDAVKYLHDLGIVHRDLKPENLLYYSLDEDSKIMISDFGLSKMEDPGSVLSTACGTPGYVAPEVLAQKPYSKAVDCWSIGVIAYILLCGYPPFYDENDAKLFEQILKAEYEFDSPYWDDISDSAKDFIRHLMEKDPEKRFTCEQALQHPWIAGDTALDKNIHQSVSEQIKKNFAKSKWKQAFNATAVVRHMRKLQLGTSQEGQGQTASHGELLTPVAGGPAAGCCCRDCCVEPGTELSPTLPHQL
T35 sequence (O75716 whole entry): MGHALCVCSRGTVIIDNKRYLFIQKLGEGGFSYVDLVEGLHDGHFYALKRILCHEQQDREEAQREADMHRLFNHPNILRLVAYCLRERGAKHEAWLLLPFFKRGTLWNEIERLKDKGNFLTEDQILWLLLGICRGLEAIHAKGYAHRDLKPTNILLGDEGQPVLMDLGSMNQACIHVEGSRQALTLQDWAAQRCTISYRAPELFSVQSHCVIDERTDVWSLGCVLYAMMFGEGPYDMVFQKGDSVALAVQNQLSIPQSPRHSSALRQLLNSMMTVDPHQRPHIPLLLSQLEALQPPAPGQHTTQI
T19 sequence (Q15375 28-998): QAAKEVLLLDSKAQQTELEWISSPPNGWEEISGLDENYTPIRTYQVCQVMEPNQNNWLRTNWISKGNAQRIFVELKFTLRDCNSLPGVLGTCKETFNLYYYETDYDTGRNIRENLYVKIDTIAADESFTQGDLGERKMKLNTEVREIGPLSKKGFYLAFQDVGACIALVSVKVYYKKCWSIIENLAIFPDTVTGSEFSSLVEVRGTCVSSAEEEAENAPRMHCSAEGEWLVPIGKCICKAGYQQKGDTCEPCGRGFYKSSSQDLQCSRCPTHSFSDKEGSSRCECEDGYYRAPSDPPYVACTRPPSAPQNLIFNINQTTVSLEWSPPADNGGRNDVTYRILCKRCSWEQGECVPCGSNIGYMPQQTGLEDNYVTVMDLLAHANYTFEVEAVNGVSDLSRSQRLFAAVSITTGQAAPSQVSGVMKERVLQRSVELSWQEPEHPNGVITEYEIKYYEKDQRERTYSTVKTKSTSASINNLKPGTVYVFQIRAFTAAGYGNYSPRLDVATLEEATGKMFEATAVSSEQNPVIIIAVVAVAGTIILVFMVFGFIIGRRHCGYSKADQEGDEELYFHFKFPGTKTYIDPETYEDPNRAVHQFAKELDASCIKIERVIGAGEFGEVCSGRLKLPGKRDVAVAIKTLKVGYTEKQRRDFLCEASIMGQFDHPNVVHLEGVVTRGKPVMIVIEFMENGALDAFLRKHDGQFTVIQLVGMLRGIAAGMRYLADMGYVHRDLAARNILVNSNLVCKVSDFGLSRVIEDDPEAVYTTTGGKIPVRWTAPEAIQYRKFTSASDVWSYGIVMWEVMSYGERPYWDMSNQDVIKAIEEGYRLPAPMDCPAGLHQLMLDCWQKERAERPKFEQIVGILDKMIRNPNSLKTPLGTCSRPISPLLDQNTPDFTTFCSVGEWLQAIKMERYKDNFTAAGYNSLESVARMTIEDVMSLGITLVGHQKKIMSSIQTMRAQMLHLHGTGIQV
T38 sequence (Q02763 23-1124): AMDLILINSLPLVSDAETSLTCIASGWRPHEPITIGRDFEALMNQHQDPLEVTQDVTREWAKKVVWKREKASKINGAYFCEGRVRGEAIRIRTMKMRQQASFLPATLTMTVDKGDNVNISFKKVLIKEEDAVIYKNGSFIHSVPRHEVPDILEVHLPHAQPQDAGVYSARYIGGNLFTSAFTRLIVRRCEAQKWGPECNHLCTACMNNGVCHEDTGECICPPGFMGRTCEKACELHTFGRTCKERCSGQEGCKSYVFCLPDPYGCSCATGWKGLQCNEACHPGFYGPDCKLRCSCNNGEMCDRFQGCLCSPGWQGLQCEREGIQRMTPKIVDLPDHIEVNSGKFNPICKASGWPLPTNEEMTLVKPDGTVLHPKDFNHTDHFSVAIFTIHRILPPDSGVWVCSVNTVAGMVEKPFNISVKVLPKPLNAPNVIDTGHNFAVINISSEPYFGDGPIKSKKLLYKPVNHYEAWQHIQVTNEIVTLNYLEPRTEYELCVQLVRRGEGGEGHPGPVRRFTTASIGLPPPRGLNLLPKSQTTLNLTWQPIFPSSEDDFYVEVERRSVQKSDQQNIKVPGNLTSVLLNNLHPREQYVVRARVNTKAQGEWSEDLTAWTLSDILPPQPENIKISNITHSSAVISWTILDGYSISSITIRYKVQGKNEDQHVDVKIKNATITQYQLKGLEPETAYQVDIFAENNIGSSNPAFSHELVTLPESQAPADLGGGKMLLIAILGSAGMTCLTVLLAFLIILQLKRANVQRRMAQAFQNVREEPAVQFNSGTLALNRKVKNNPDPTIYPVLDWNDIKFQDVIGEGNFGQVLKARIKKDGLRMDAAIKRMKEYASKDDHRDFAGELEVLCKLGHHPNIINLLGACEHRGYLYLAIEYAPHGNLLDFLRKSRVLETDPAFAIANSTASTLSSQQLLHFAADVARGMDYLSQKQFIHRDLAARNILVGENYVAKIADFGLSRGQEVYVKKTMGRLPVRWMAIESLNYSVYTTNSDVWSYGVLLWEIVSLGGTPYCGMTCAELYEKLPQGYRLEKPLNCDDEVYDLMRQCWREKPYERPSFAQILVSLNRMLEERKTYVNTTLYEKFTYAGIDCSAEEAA
T15 sequence (Q9HAZ1 whole entry): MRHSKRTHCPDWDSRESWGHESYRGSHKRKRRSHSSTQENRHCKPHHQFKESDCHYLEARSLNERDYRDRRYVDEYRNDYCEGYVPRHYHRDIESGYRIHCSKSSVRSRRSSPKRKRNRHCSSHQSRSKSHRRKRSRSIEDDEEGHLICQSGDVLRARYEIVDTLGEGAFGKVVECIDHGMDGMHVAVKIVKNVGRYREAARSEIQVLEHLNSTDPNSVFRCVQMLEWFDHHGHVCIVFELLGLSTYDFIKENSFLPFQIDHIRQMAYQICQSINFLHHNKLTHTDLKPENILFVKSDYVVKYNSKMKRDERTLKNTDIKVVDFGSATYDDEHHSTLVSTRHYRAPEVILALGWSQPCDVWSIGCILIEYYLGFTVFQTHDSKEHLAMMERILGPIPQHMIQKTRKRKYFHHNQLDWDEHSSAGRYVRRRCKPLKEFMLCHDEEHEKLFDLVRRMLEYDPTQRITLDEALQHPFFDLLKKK
T25 sequence (Q9HC98 whole entry): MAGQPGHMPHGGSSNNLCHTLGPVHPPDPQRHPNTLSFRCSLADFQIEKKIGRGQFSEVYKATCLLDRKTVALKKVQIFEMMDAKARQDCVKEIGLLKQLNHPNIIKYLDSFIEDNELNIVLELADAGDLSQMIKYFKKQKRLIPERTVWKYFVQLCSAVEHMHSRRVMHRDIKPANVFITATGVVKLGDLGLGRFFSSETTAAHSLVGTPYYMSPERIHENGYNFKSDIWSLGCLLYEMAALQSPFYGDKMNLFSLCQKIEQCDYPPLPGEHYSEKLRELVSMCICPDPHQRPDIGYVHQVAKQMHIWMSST

NC(=O)c1ccc(-c2nc(-c3ccc4c(c3)OCCO4)c(-c3ccccn3)[nH]2)cc1 [D4476, 4-[4-(2,3-Dihydro-benzo[1,4]dioxin-6-yl)-5-pyridin-2-yl-1H-imidazol-2-yl]benzamide]
< 50%: all assays above

NC(=O)c1ccc(-c2nc(-c3ccc4c(c3)OCO4)c(-c3ccccn3)[nH]2)cc1 [SB431542, 4-(4-benzo-[1,3]dioxol-5-yl-5-pyridin-2-yl-1H-imidazol-2-yl)benzamide]
< 50%: all assays above
